{"source": "paper PMC5485725", "about": "“QueF-Like, a Non-Homologous Archaeosine Synthase from the Crenarchaeota” (Biomolecules, 2017)", "target": "T1, QueF-like (QueF-L) from Pyrobaculum calidifontis (Pyrobaculum calidifontis, UniProt A3MSP1)", "T1 construct": "codon-optimized synthetic gene in FactorXa/LIC vector (pLBI14), expressed in E. coli BL21(DE3); N-terminal His6 tag cut by Factor Xa; starts at Met1 (primer encodes MLKVSK..., ends ...PPVYI); decamer", "T1 sequence (A3MSP1 1-109)": "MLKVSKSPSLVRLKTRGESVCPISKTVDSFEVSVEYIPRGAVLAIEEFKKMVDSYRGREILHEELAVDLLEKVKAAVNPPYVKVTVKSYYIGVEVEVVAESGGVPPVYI", "experiment": "UV-Vis titration of thioimide absorbance at […] nm", "type": "binding", "conditions": "read-out: apparent KD", "data": [{"molecule": "N#Cc1c[nH]c2nc(N)[nH]c(=O)c12", "note": "[preQ0]", "values": [{"measurement": "Kd", "value": 8, "unit": "µM"}]}]}
